Where two headings read alike, the source gives them in different places.
Key:
Format in all cases: cell-based, human
SMN2 mRNA = experiment: Splicing RT-qPCR gene panel, SMN2 canonical junction (CJ) mRNA; conditions: Homo sapiens, Tables 4A/4B, read-out: SMN2 (IC50, decrease in CJ mRNA, gene panel)
Outline: (§1)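 A673 or K562 cells treated 24 h at 37° C. with an 11-point 3-fold dilution series (top 10 uM, ≤0.25% DMSO). Lysates analysed by one-step RT-qPCR for canonical exon-exon junction transcripts, normalized to GAPDH, GUSB or PPIA and DMSO control (2^(−ΔΔCt)), then converted to percentage response.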

HTT mRNA [1] = experiment: Splicing RT-qPCR gene panel, HTT canonical junction (CJ) mRNA; conditions: Tables 4A/4B, read-out: HTT (IC50, decrease in CJ mRNA, gene panel)
Outline: as §1

MYB mRNA = experiment: Splicing RT-qPCR assay, MYB canonical (CJ) and alternative (AJ) junction mRNA; conditions: for AC50: read-out: MYB AJ (AC50, increase in alternative junction mRNA)
Outline: (§2)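 Canonical (CJ) and alternative-exon (AJ) junction mRNAs quantified by one-step RT-qPCR in cell lysates, normalized to housekeeping PPIA for A673 and GAPDH or GUSB for K562. Cells were exposed 24 h at 37 °C to 11-point 3-fold compound series from 10 uM final, with DMSO at or below 0.25%.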

Target C mRNA = experiment: Splicing RT-qPCR gene panel, Target C canonical junction (CJ) mRNA; conditions: Tables 4A/4B, read-out: Target C (IC50, decrease in CJ mRNA, gene panel)
Outline: as §1

HTT mRNA [2] = experiment: Splicing RT-qPCR assay, HTT canonical (CJ) and alternative (AJ) junction mRNA; conditions: A673 or K562 cells, 24 hours compound treatment; for IC50: read-out: HTT CJ (IC50, decrease in canonical junction mRNA); for AC50: read-out: HTT AJ (AC50, increase in alternative junction mRNA)
Outline: as §2

[3] = Homo sapiens, 24 h, A673 or K562 cells, 24 hours compound treatment, RT-qPCR
[4] = Homo sapiens, 24 h, A673 or K562 cells, 24 hours compound treatment, RT-qPCR, read-out: MYB CJ (IC50, decrease in canonical junction mRNA)
[5] = Homo sapiens, Tables 4A/4B, canonical junction qPCR panel, read-out: MYB (IC50, decrease in CJ mRNA, gene panel)

Structure (SMILES) | IC50 (SMN2 mRNA) [nM] | IC50 (HTT mRNA [1]; Homo sapiens) [nM] | AC50 (MYB mRNA; [3]) [nM] | IC50 (MYB mRNA; [4]) [nM] | IC50 (MYB mRNA; [5]) [nM] | IC50 (Target C mRNA; Homo sapiens) [nM] | IC50 (HTT mRNA [2]; Homo sapiens, 24 h) [nM] | AC50 (HTT mRNA [2]; Homo sapiens) [nM] | IC50 (HTT mRNA [1]) [nM] | AC50 (MYB mRNA; A673 or K562 cells, 24 hours compound treatment, RT-qPCR) [nM] | IC50 (MYB mRNA; A673 or K562 cells, 24 hours compound treatment, RT-qPCR, read-out: MYB CJ (IC50, decrease in canonical junction mRNA)) [nM] | IC50 (MYB mRNA; Tables 4A/4B, canonical junction qPCR panel, read-out: MYB (IC50, decrease in CJ mRNA, gene panel)) [nM] | IC50 (Target C mRNA) [nM] | IC50 (HTT mRNA [2]) [nM]
CCn1cc2c(N3CCN[C@@H](CO)C3)ccc(C(=O)Nc3cc(F)c4nc(C)cn4c3)c2n1 [Compound 429, (R)-2-ethyl-N-(8-fluoro-2-methylimidazo[1,2-a]pyridin-6-yl)-4-(3-(hydroxymethyl)piperazin-1-yl)-2H-indazole-7-carboxamide] | < 100 | 1000 to 10000 | 100 to 1000 | 100 to 1000 | 100 to 1000 | > 10000 | 1000 to 10000 | 1000 to 10000 |  |  |  |  |  | 
CCn1cc2c(N3CCN[C@H](CO)C3)ccc(C(=O)Nc3cc(F)c4nc(C)cn4c3)c2n1 [Compound 430, (S)-2-ethyl-N-(8-fluoro-2-methylimidazo[1,2-a]pyridin-6-yl)-4-(3-(hydroxymethyl)piperazin-1-yl)-2H-indazole-7-carboxamide] | < 100 | 1000 to 10000 | < 100 | < 100 | < 100 | > 10000 | 1000 to 10000 | 1000 to 10000 |  |  |  |  |  | 
CN[C@@H]1CCN(c2ccc(C(=O)Nc3cn4cc(C)nc4c(OC)n3)c3nn(CCOC)cc23)C1 [Compound 431, (R)—N-(8-methoxy-2-methylimidazo[1,2-a]pyrazin-6-yl)-2-(2-methoxyethyl)-4-(3-(methylamino)pyrrolidin-1-yl)-2H-indazole-7-carboxamide] | < 100 | 1000 to 10000 | 100 to 1000 | 100 to 1000 | < 100 | 1000 to 10000 | > 10000 | > 10000 |  |  |  |  |  | 
CN[C@H]1CCN(c2ccc(C(=O)Nc3cn4cc(C)nc4c(OC)n3)c3nn(CCOC)cc23)C1 [Compound 432, (S)—N-(8-methoxy-2-methylimidazo[1,2-a]pyrazin-6-yl)-2-(2-methoxyethyl)-4-(3-(methylamino)pyrrolidin-1-yl)-2H-indazole-7-carboxamide] | < 100 | > 10000 | < 100 | < 100 | 100 to 1000 | > 10000 | > 10000 | > 10000 |  |  |  |  |  | 
CCOc1nc(NC(=O)c2ccc(N3CC[C@H](NC)C3)c3cn(C)nc23)cn2cc(C)nc12 [Compound 434] | < 100 | > 10000 | 1000 to 10000 | 100 to 1000 | < 100 | > 10000 | 1000 to 10000 | 1000 to 10000 |  |  |  |  |  | 
Cc1cn2cc(NC(=O)c3ccc(N4CCNCC4)c4nnn(C)c34)cc(F)c2n1 [Compound 435, N-{8-fluoro-2-methylimidazo[1,2-a]pyridin-6-yl}-3-methyl-7-(piperazin-1-yl)-1,2,3-benzotriazole-4-carboxamide] | < 100 | 1000 to 10000 | > 10000 | > 10000 | 100 to 1000 | 1000 to 10000 | > 10000 | > 10000 |  |  |  |  |  | 
Cc1cn2cc(NC(=O)c3ccc(N4CCNCC4)c4c3nnn4C)cc(F)c2n1 [Compound 436, N-{8-fluoro-2-methylimidazo[1,2-a]pyridin-6-yl}-1-methyl-7-(piperazin-1-yl)-1,2,3-benzotriazole-4-carboxamide] | > 10000 | > 10000 | 100 to 1000 | 100 to 1000 | > 10000 | > 10000 | > 10000 | > 10000 |  |  |  |  |  | 
CCn1cc2c(N3CC[C@H](NC)C3)ccc(C(=O)Nc3cc(F)c4nc(C)cn4c3)c2n1 [Compound 437, (S)-2-ethyl-N-(8-fluoro-2-methylimidazo[1,2-a]pyridin-6-yl)-4-(3-(methylamino)pyrrolidin-1-yl)-2H-indazole-7-carboxamide] | < 100 | > 10000 | < 100 | < 100 | 100 to 1000 | > 10000 | 1000 to 10000 | 1000 to 10000 |  |  |  |  |  | 
CN[C@@H]1CCN(c2ccc(C(=O)Nc3cn4cc(C)nc4c(OC)n3)c3nn(C)cc23)C1 [Compound 441] | < 100 | 1000 to 10000 | < 100 | < 100 | < 100 | > 10000 | 1000 to 10000 | 1000 to 10000 |  |  |  |  |  | 
CN[C@H]1CCN(c2ccc(C(=O)Nc3cn4cc(C)nc4c(OC)n3)c3nn(C)cc23)C1 [Compound 442] | < 100 | 1000 to 10000 | 100 to 1000 | 100 to 1000 | < 100 | > 10000 | 1000 to 10000 | > 10000 |  |  |  |  |  | 
CCNC1CCN(c2ccc(C(=O)Nc3cc(F)c4nc(C)sc4c3)c3nn(C)cc23)CC1 [Compound 443, 4-[4-(ethylamino)piperidin-1-yl]-N-(4-fluoro-2-methyl-1,3-benzothiazol-6-yl)-2-methylindazole-7-carboxamide] | < 100 | 1000 to 10000 | < 100 | < 100 | 100 to 1000 | > 10000 | 1000 to 10000 | 1000 to 10000 |  |  |  |  |  | 
Cc1cn2cc(NC(=O)c3ccc(N4CCNCC4)c4cn(C)nc34)c(C#N)cc2n1 [Compound 444, N-{7-cyano-2-methylimidazo[1,2-a]pyridin-6-yl}-2-methyl-4-(piperazin-1-yl) indazole-7-carboxamide] | < 100 |  |  |  |  |  |  | > 10000 | 1000 to 10000 | 100 to 1000 | 100 to 1000 | < 100 | 1000 to 10000 | 1000 to 10000
Cc1cn2cc(NC(=O)c3ccc(N4CCNC[C@@H]4C)c4cn(C)nc34)cc(F)c2n1 [Compound 446, N-{8-fluoro-2-methylimidazo[1,2-a]pyridin-6-yl}-2-methyl-4-[(2S)-2-methylpiperazin-1-yl]indazole-7-carboxamide] | < 100 | 1000 to 10000 | 100 to 1000 | 100 to 1000 | 100 to 1000 | 1000 to 10000 | 1000 to 10000 | 1000 to 10000 |  |  |  |  |  | 
Cc1cn2cc(NC(=O)c3ccc(N4CCNC[C@H]4C)c4cn(C)nc34)cc(F)c2n1 [Compound 447, N-{8-fluoro-2-methylimidazo[1,2-a]pyridin-6-yl}-2-methyl-4-[(2R)-2-methylpiperazin-1-yl]indazole-7-carboxamide] | < 100 | 1000 to 10000 | < 100 | < 100 | 100 to 1000 | 1000 to 10000 | 100 to 1000 | 100 to 1000 |  |  |  |  |  | 
CNC1CCN(c2ccc(C(=O)Nc3cc(F)c4nc(C)cn4c3)c3nn(C)cc23)CC1 [Compound 448, N-{8-fluoro-2-methylimidazo[1,2-a]pyridin-6-yl}-2-methyl-4-[4-(methylamino)piperidin-1-yl]indazole-7-carboxamide] | < 100 | 100 to 1000 | < 100 | < 100 | < 100 | 1000 to 10000 | 100 to 1000 | 1000 to 10000 |  |  |  |  |  | 
CCn1cc2c(N3CCN(C)CC3)ccc(C(=O)Nc3cc(F)c4nc(CO)oc4c3)c2n1 [Compound 450, 2-ethyl-N-[4-fluoro-2-(hydroxymethyl)-1,3-benzoxazol-6-yl]-4-(4-methylpiperazin-1-yl) indazole-7-carboxamide] | < 100 | 100 to 1000 | > 10000 | > 10000 | < 100 | 1000 to 10000 | > 10000 | > 10000 |  |  |  |  |  | 

Reference: patent US20250154169A1, “COMPOUNDS AND METHODS FOR MODULATING SPLICING” (REMIX THERAPEUTICS INC., priority 2021, published 2025)
